Results: PubChem BioAssay (NCI)
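Cultured in 96-well plates, cells were exposed to test compound for 48 hours across five concentrations. GI50 marks 50% less growth. TGI: total growth inhibition.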

Assays:
Experiment in all cases: NCI anticancer screen, dose series, 48 h
[1] = test system: TK-10 renal
[2] = test system: HOP-92 NSCLC
[3] = test system: OVCAR-4 ovarian
[4] = test system: HCT-116 colon
[5] = test system: SK-MEL-5 melanoma
[6] = test system: RPMI-8226 leukemia
[7] = test system: RXF 393 renal
[8] = test system: CAKI-1 renal
[9] = test system: UACC-62 melanoma
[10] = test system: SN12C renal

| SMILES | TGI [1] [µM] | TGI [2] [µM] | TGI [3] [µM] | TGI [4] [µM] | TGI [5] [µM] | TGI [6] [µM] | TGI [7] [µM] | TGI [8] [µM] | TGI [9] [µM] | TGI [10] [µM] | GI50 [1] [µM] | GI50 [9] [µM] | GI50 [3] [µM] | GI50 [5] [µM] | GI50 [6] [µM] | GI50 [8] [µM] | GI50 [10] [µM] | GI50 [2] [µM] |
| --- | --- | --- | --- | --- | --- | --- | --- | --- | --- | --- | --- | --- | --- | --- | --- | --- | --- | --- |
| CC1=NN(c2cccc(Cl)c2)C2(SCC(=O)N2c2nc3ccccc3s2)/C1=C\c1cccs1 (stereo not given) | 80.6 | 53.6 | 66 | 52.1 | 36.7 | 38.7 | 51.6 | 99 | – | – | – | – | – | – | – | – | – | – |
| Fc1ccc(C(OCCN2CCC3CCC(C2)N3C/C=C/c2ccco2)c2ccc(F)cc2)cc1 (stereo not given) | 21.5 | 19.1 | 25.2 | 18.5 | 14.4 | 17.3 | 15.7 | 27.9 | 26.7 | 24.8 | – | – | – | – | – | – | – | – |
| O=C(c1cccs1)N(C(=S)OC12CC3CC(CC(C3)C1)C2)c1ccccc1 | > 100 | > 100 | > 100 | 59.3 | 55.8 | – | > 100 | > 100 | 84.8 | 89.8 | – | – | – | – | – | – | – | – |
| O=C(/C=C/c1ccccc1)NNC(=O)c1c(Cl)c(Cl)c(Cl)c(Cl)c1-c1nc2ccccc2[nH]1 | – | 45.7 | > 100 | 53.6 | 62.4 | 83.2 | 47.3 | > 100 | > 100 | 63.4 | – | – | – | – | – | – | – | – |
| O=c1[nH]nc(NNc2ccccc2)c2nnn(C3CCCCC3)c12 | > 100 | > 100 | > 100 | > 100 | > 100 | > 100 | – | > 100 | – | > 100 | – | – | – | – | – | – | – | – |
| COc1cc2c(cc1O)CC[C@@H]1[C@@H]2CC[C@]2(C)[C@@H](OCCN(C)C)CC[C@@H]12 | 2.81 | – | 5.84 | – | 0.164 | 0.312 | – | 6.19 | 0.363 | 4.05 | 0.932 | 0.128 | 0.306 | 0.0828 | 0.116 | 1.45 | 0.803 | – |
| Cc1c(N2C(=O)CS(=O)(=O)C2c2cccc(Oc3ccccc3)c2)c(=O)n(-c2ccccc2)n1C (stereo not given) | 47.7 | > 100 | 66.3 | > 100 | > 100 | 74.4 | 79.3 | > 100 | > 100 | > 100 | – | – | – | – | – | – | – | – |
| Cc1ccccc1C(=O)N/N=C/c1ccc(Sc2nccn2C)c([N+](=O)[O-])c1 | > 100 | 88.2 | > 100 | > 100 | > 100 | > 100 | > 100 | > 100 | > 100 | > 100 | – | – | – | – | – | – | – | – |
| COc1nc(C#CC2(O)CCCCC2)nc(OC)n1 | – | – | 4.44 | > 100 | 20.2 | 10.5 | 27 | 15.9 | 20.2 | 26.6 | – | – | – | – | – | – | – | – |
| Nc1ccccc1S(=O)(=O)c1ccccc1 | > 100 | > 100 | > 100 | > 100 | > 100 | > 100 | > 100 | – | > 100 | > 100 | – | – | – | – | – | – | – | – |
| CC(=O)C1=C(C)N(c2ccc(C)cc2)C2(O)C=CC(=O)C3C(=O)N(c4ccccc4)C(=O)C132 (stereo not given) | 40.3 | 43.1 | 41.2 | > 100 | 34 | > 100 | 54.3 | 45.4 | 35.6 | 34.2 | – | – | – | – | – | – | – | – |
| CCCNC(=O)CCC(C)C1CCC2C3C(C[C@H](OC(C)=O)[C@]12C)[C@@]1(C)CCC2(C[C@H]1C[C@H]3OC(C)=O)OOC1(CC[C@]3(C)C4C[C@H](OC(C)=O)[C@]5(C)C(C(C)CCC(=O)NCCC)CCC5C4[C@H](OC(C)=O)C[C@@H]3C1)OO2 (stereo not given in full) | > 100 | > 68.4 | > 100 | > 100 | > 100 | > 100 | > 87.1 | > 100 | > 100 | > 100 | – | > 67 | – | – | – | – | – | 7.51 |
| CC12CC3OC(=O)C1COC14OC5(C2C1=O)C(O)(CCC1C4CC(O)C2(O)CC=CC(=O)C12C)C(=O)OC35C (stereo not given) | > 100 | > 100 | > 100 | > 100 | > 100 | > 100 | – | > 100 | > 100 | > 100 | – | – | – | – | – | – | – | – |
| O=C(OCN1C(=O)C2C3C=CC(C2C1=O)C1C2C(=O)N(COC(=O)C4CCCN4)C(=O)C2C31)C1CCCN1 (stereo not given) | > 100 | > 100 | > 100 | > 53.7 | > 100 | 54.1 | > 100 | > 100 | > 100 | > 100 | – | – | – | – | – | – | – | – |
| CC1CC[C@@]2(OC1)OC1C[C@H]3[C@@H]4CC=C5CC(OC6OC(CO)C(OC7OC(CO)C(O)C(OC8OCC(O)C(O)C8O)C7OC7OC(CO)C(O)C(O)C7O)C(O)C6O)CCC5(C)[C@H]4CCC3(C)C1[C@@H]2C (stereo not given in full) | 20.2 | > 25 | 17.4 | 8.14 | 8.43 | 18.4 | 9.43 | 10.3 | > 25 | 8.27 | – | – | – | – | – | – | – | – |
| COc1cccc2c1Cc1cc(-c3ccccc3)[n+](C)n1-2 | > 100 | 66.4 | 14.5 | 15.8 | 21.7 | > 100 | 73.6 | > 100 | 30.3 | 61.7 | – | – | – | – | – | – | – | – |
| CNC(=O)OCc1c(CO)nc(SC)n1C | – | > 100 | > 100 | > 100 | > 100 | > 100 | > 100 | > 100 | > 100 | > 100 | – | – | – | – | – | – | – | – |
| O=C(/C=C/c1ccc(O)c(-c2cc(C(=O)/C=C/c3ccc(O)cc3)c(O)cc2O)c1)c1ccc(O)cc1O | > 50 | > 50 | > 50 | 23.7 | > 50 | > 50 | > 50 | > 50 | 20.4 | > 50 | – | – | – | – | – | – | – | – |
| CNc1ccc2c(c1)[C@@]1(C)c3ccccc3[C@@H](C2)N1C | 86.2 | 74.4 | > 100 | 33.4 | 32 | 38.9 | 50.8 | > 100 | 35.7 | 33 | – | – | – | – | – | – | – | – |
